According to patent US7547708B2, “N-sulfamoyl-N′-benzopyranpiperidine compounds and uses thereof” (Solvay Pharmaceuticals, Inc., priority 2005, dated 2009):

Experiments:
[1] = target: T1, human carbonic anhydrase isoenzyme II (hCA II) (Homo sapiens, UniProt P00918); test: In vitro inhibition of human carbonic anhydrase isoenzyme II (dansylamide fluorescence); format: binding; settings: hCA II from erythrocytes 10^-7 M, dansylamide 2.25x10^-6, 60 min at 37° C., single measurements; read-out: hCA II inhibiting effect in vitro, IC50
T1 construct: human carbonic anhydrase isoenzyme II from erythrocytes (Sigma-Aldrich); purchased Sigma-Aldrich; host or cells: human erythrocytes (natural source)
Experimental: 1. In vitro Inhibition of Human Carbonic Anhydrase Isoenzyme II (hCA II)
The test compounds of general Formula I in 96 well microplates were diluted with aqua bidest by using an automatic pipettor (CyBiWell®). From the different dilution plates, aliquots of 20 μl were transferred to the 96 well black assay plates with a pipetting station (Tecan Genesis®). In a second step, 148 μl of potassium phosphate buffer (20 mM, pH 7.4) was added, and as a third step, 20 μl of enzyme solution (1 μM human carbonic anhydrase isoenzyme II from erythrocytes (Sigma-Aldrich), dissolved in potassium phosphate buffer) incubated for 60 min at room temperature and the fluorescence signal (Tecan Ultra® fluorescence reader; excitation wavelength: 280 nm; emission wavelength: 465 nm) read at the end of the preincubation period (FLU-1). After the preincubation time, 20 μl of aqueous dansylamide solution (1 mM dansylamide (Sigma-Aldrich), dissolved in hydrochloric acid) were added and the fluorescence signal read every 10 min for a period of 60 min at 37° C. For calculation, the fluorescence data of the time point 60 min (FLU-2) were used. The total volume of assay mixture amounted to 208 μl. The final concentration of carbonic anhydrase II was 10^−7 M/L, of dansylamide 2.25×10^−6 and of compounds from 10^−8 M/L up to 10^−5 M/L. Final concentration of DMSO as compound solvent was 0.1 mM. Each microplate also contained blanks without compound and enzyme, controls without compound and ethoxzolamide (final concentration 5×10^−8 M/L). All data reflect single measurements. Data were expressed as % inhibition after calculation by the formula: % inhibition=100((1−(FLU-2cpd−FLU-2blank−FLU-1cpd+FLU-1blank)/(FLU-2control−FLU-2blank−FLU-1control−FLU-1blank))
The % inhibition data for each compound and the respective final concentrations were used for IC50 calculations by using the Prism 4 software. Concentration action figures were calculated by applying the Prism algorithm for nonlinear regression (curve-fit): sigmoidal dose response with variable slope and the constraints: top: 100 and bottom 0.

C57BI/6 mice = test: Acute in vivo food intake test in mice; settings: 24 h food intake, C57BI/6 mice on high caloric diet, 100 mg/kg/day by oral gavage in two half doses
Experimental: 2. Acute in vivo Food Intake Test in Mice
The studies were carried out in male or female C57BI/6 mice (n=8-12 per group). The mice were kept on an inverted 12/12 h light/dark cycle (lights on 22:00). They were allowed food (high caloric diet) and water ad libitum. Food intake and water consumption was measured daily. The test compound of general Formula I was suspended in 1% methylcellulose in water and 2% (v/v) of Poloxamer 188 (Lutrol F68®) and administered by oral gavage at a dose of 100 mg/kg/day. One half of the dose was administered at 7.00-9.00 h; the remaining half of the dose was administered between 15.00-15.30 h.
In the test model described above, the test substances caused a decrease of the animals' 24 h food intake to the percentages of food intake when compared to control as given in the following Table 2.

Row | SMILES | IC50 [1] [µM] | melting point [°C] | food intake [% of control] (C57BI/6 mice)
1 | NS(=O)(=O)N1CCC2(CC1)CC(=O)c1ccccc1O2 [Example 1] | 6.6 | 172 to 174 | 83 % of control
2 | NS(=O)(=O)N1CCC2(CC1)CC(=O)c1cc(Cl)ccc1O2 [Example 4] | 6.4 |  | 
3 | COc1ccc2c(c1)C(=O)CC1(CCN(S(N)(=O)=O)CC1)O2 [Example 3] | 7.7 | 172 to 177 | 
